Results on six compounds are retold here after US11149028B2, “Methods for treating melanoma using small molecules” (NOVA SOUTHEASTERN UNIVERSITY, priority 2016, dated 2021).

The test system of assay [1] is LC3-II and beclin-1 in WM266-4 cells. Nature of the assay: Western blotting for LC3 and beclin-1, WM266-4. The assay is classed as cell-based, human. The procedure: 1×10^6 of WM266-4 or M14 cells were seeded in 3 mL of E-MEM or RPMI-1640 medium supplemented with 10% FBS and 1% penicillin/streptomycin in 6 cm plates. […] After washing with TBST, the membranes were treated with chemilumiscent horseradish peroxidase detection reagent (Thermo Scientific, Cat #32209) and exposed to autoradiography film (Denville Scientific, Inc., Metuchen, N.J., USA, cat #E3018). ImageJ software (NIH, Bethesda, Md.) was used to quantify the intensity of proteins bands. The protein bands were normalized against loading controls (β-actin) and expressed as a fold of an untreated control.

In assay [2] the test system is cleaved lamin A/C in WM266-4 cells. As to the kind of experiment: Western blotting for lamin A/C cleavage. The class given is cell-based, human. The procedure: 1×10^6 of WM266-4 or M14 cells were seeded in 3 mL of E-MEM or RPMI-1640 medium supplemented with 10% FBS and 1% penicillin/streptomycin in 6 cm plates. […] After washing with TBST, the membranes were treated with chemilumiscent horseradish peroxidase detection reagent (Thermo Scientific, Cat #32209) and exposed to autoradiography film (Denville Scientific, Inc., Metuchen, N.J., USA, cat #E3018). ImageJ software (NIH, Bethesda, Md.) was used to quantify the intensity of proteins bands. The protein bands were normalized against loading controls.

Setting [3] is: 50 μM inhibitor, then 100 μM 2155-14.
Setting [4] is: 10 μM inhibitor 3 h, then 100 μM 2155-14, 24 h.
Where [5] appears, read: cells treated with 100 μM 2155-14, inhibitor 10 μM.

Peptide text beside a SMILES is read from it. * marks the point of attachment. Cbz = O=C(OCc1ccccc1)*; CH2F = FC*

`CN(C)c1cccc2c(S(=O)(=O)NCCCC[C@@H](CN3CCC[C@H]3CN3C(=O)C(=O)NC[C@@H]3Cc3ccccc3)N3C[C@H](Cc4ccc(O)cc4)N(CCc4ccccc4)C(=O)C3=O)cccc12` [Compound 2476-66.2, N—((S)-6-((S)-2-(((S)-6-benzyl-2,3-dioxopiperazin-1-yl)methyl)pyrrolidin-1-yl)-5-((S)-5-(4-hydroxybenzyl)-2,3-dioxo-4-phenethylpiperazin-1-yl)hexyl)-5-(dimethylamino)naphthalene-1-sulfonamide]: the “LC3-II level” value in assay [1] (2.5 μM, 24 hr) is “no cleavage of lamin A/C or increase of levels of LC3-II was detected”. The “LC3 western blot” value in assay [1] (5 μM, 24 hr) was “neither of LC3 isoforms nor actin were detected”. Further, the “lamin A/C cleavage” value in assay [2] (2.5 μM, 24 hr) is “no cleavage of lamin A/C”. For the same compound, the “lamin A/C western blot” value in assay [2] (5 μM, 24 hr) is given as “striking increase of cleaved lamin A/C”.

Regarding `COC(=O)C[C@H](NC(=O)[C@H](C)NC(=O)[C@@H](NC(=O)[C@H](CC(=O)OC)NC(=O)[C@@H](NC(=O)OCc1ccccc1)C(C)C)C(C)C)C(=O)CF` [caspase 2 inhibitor, Z-VDVAD-FMK, reference compound] (Cbz-VD(OMe)VAD(OMe)-CH2F), in assay [2] (setting [3]), the “lamin A/C cleavage after caspase inhibitor pre-treatment” value was “to the lesser extent”.

Take `CC[C@H](C)[C@H](NC(=O)[C@H](CCC(=O)OC)NC(=O)[C@@H](NC(=O)OCc1ccccc1)C(C)C)C(=O)N[C@@H](CC(=O)OC)C(=O)CF` [caspase 6 inhibitor, Z-VEID-FMK, reference compound] (Cbz-VE(OMe)ID(OMe)-CH2F): the figures for the “lamin A/C cleavage after caspase inhibitor pre-treatment” value in assay [2] (setting [4]) and in assay [2] (setting [3]) were “Only partial inhibition of lamin A/C cleavage” and “almost completely abrogated”, respectively.

As to `CC[C@H](C)[C@H](NC(=O)OCc1ccccc1)C(=O)N[C@@H](CCC(=O)OC)C(=O)N[C@H](C(=O)N[C@@H](CC(=O)OC)C(=O)CF)[C@@H](C)O` [caspase 8 inhibitor, Z-IETD-FMK, reference compound] (Cbz-IE(OMe)TD(OMe)-CH2F), the “lamin A/C cleavage after caspase inhibitor pre-treatment” value is reported as “Only partial inhibition of lamin A/C cleavage” in assay [2] (setting [4]) and “almost completely abrogated” in assay [2] (setting [3]).

On to `CCN(CCO)CCCC(C)Nc1ccnc2cc(Cl)ccc12` (stereo not shown) [hydroxychloroquine, reference compound], for which the “LC3-II level after autophagy inhibitor pretreatment” value in assay [1] (setting [5]) is “increased levels”. The “cleaved lamin A/C level after autophagy inhibitor pretreatment” value in assay [2] (setting [5]) is “increased levels”.

As to `COC(=O)C[C@H](NC(=O)[C@H](C)NC(=O)[C@@H](NC(=O)OCc1ccccc1)C(C)C)C(=O)CF` [pan-caspase inhibitor, Z-VAD-FMK, reference compound] (Cbz-Val-Ala-Asp(OMe)-CH2F), the “lamin A/C cleavage after caspase inhibitor pre-treatment” value in assay [2] (setting [4]) was “Only partial inhibition of lamin A/C cleavage”; in assay [2] (setting [3]), “almost completely abrogated”.
